Each compound was assayed against recombinant human NUDT5 (Homo sapiens, UniProt Q9UKK9) (assay: NUDT5 inhibitor activity by malachite green reporter assay). Details: Table 3; 6 nM NUDT5, 50 μM ADP-Ribose, 15 minutes at room temperature.
Format: biochemical
Experimental: NUDT5 inhibitors were evaluated using a coupled enzymatic assay with detection of inorganic phosphate (Pi) using the malachite green assay. Following enzymatic hydrolysis of ADP-Ribose (Sigma-Aldrich A0572) by NUDT5, to yield AMP and ribose-5-phosphate, the latter product is continuously processed by a significant excess of alkaline phosphatase (Sigma-Aldrich, P0114). Formation of Pi is quantified based on the green complex (that absorbs at 630 nm) formed between malachite green and molybdate according to published procedure (Baykov, A. A., Evtushenko, O. A. and Avaeva, S. M., Anal Biochem, 171, 266-270 (1988)). Assay buffer consisted of 10 mM Tris-acetate at pH 8.0, 40 mM sodium chloride, 10 mM magnesium acetate, 0.005% Tween-20 and 1 mM dithiothreitol (DTT). The final conditions consisted of 6 nM recombinant human NUDT5, 50 μM ADP-Ribose and 10 U/ml of calf intestine alkaline phosphatase. The plates with compounds, enzymes and substrate were incubated at room temperature for 15 minutes, after which the reaction was terminated and the signal developed by the addition of the malachite green reagent using a MultiDrop (Thermo Scientific). Following vigorous shaking on plate shakers for a minimum of eight minutes the absorbance was read in a microplate reader (HidexSense) using a filter at 630 nm and a read time of 0.1 s per well. Inhibitors were used in dilutions from 100 μM to 1.7 nM in 3-fold dilution steps. Experiments were run in duplicate and confirmed in two independent experiments. IC50 values were determined by curve fitting using ExcelFit.

Compound | IC50 [nM]
CC1CN(c2nc3c(c(=O)n(C)c(=O)n3C)n2Cc2nnc(-c3ccc(Cl)c(Cl)c3)o2)CC(C)N1 (centres unmarked) [Example 29, 7-{[5-(3,4-dichlorophenyl)-1,3,4-oxadiazol-2-yl]methyl}-8-(3,5-dimethylpiperazin-1-yl)-1,3-dimethyl-2,3,6,7-tetrahydro-1H-purine-2,6-dione] | 43.8
Cn1c(=O)c2c(nc(N3CC4CCCCC4C3)n2Cc2nnc(-c3ccc(Cl)c(Cl)c3)o2)n(C)c1=O (centres unmarked) [Example 11, 7-{[5-(3,4-dichlorophenyl)-1,3,4-oxadiazol-2-yl]methyl}-1,3-dimethyl-8-(octahydro-1H-isoindol-2-yl)-2,3,6,7-tetrahydro-1H-purine-2,6-dione] | 84.6

Second part, the compound after the results:

IC50 [nM] | Compound
12 | C[C@H]1CN(c2nc3c(c(=O)n(C)c(=O)n3C)n2Cc2nnc(-c3ccc(Cl)c(Cl)c3)o2)CCN1 [Example 46, 7-{[5-(3,4-dichlorophenyl)-1,3,4-oxadiazol-2-yl]methyl}-1,3-dimethyl-8-[(3S)-3-methylpiperazin-1-yl]-2,3,6,7-tetrahydro-1H-purine-2,6-dione]
21.5 | Cn1c(=O)c2c(nc(N3CCCC(O)C3)n2Cc2nnc(-c3ccc(Cl)c(Cl)c3)o2)n(C)c1=O (centres unmarked) [Example 44, 7-{[5-(3,4-dichlorophenyl)-1,3,4-oxadiazol-2-yl]methyl}-8-(3-hydroxypiperidin-1-yl)-1,3-dimethyl-2,3,6,7-tetrahydro-1H-purine-2,6-dione]
15 | Cn1c(=O)c2c(nc(N3CCCCC3)n2Cc2nnc(-c3ccc(Cl)c(Cl)c3)o2)n(C)c1=O [Example 9, 7-{[5-(3,4-dichlorophenyl)-1,3,4-oxadiazol-2-yl]methyl}-1,3-dimethyl-8-(piperidin-1-yl)-2,3,6,7-tetrahydro-1H-purine-2,6-dione]
111 | CN(C)c1nc2c(c(=O)n(C)c(=O)n2C)n1Cc1nnc(-c2ccc(Cl)c(Cl)c2)o1 [Example 3, 7-{[5-(3,4-dichlorophenyl)-1,3,4-oxadiazol-2-yl]methyl}-8-(dimethylamino)-1,3-dimethyl-2,3,6,7-tetrahydro-1H-purine-2,6-dione]
50.3 | Cn1c(=O)c2c(nc(N3CCCCCC3)n2Cc2nnc(-c3ccc(Cl)c(Cl)c3)o2)n(C)c1=O [Example 21, 8-(azepan-1-yl)-7-{[5-(3,4-dichlorophenyl)-1,3,4-oxadiazol-2-yl]methyl}-1,3-dimethyl-2,3,6,7-tetrahydro-1H-purine-2,6-dione]
106 | Cn1c(=O)c2c(nc(N3CCN(CCO)CC3)n2Cc2nnc(-c3ccc(Cl)c(Cl)c3)o2)n(C)c1=O [Example 31, 7-{[5-(3,4-dichlorophenyl)-1,3,4-oxadiazol-2-yl]methyl}-8-[4-(2-hydroxyethyl)piperazin-1-yl]-1,3-dimethyl-2,3,6,7-tetrahydro-1H-purine-2,6-dione]
18.5 | Cn1c(=O)c2c(nc(N3CCC(CN)CC3)n2Cc2nnc(-c3ccc(Cl)c(Cl)c3)o2)n(C)c1=O [Example 38, 8-[4-(aminomethyl)piperidin-1-yl]-7-{[5-(3,4-dichlorophenyl)-1,3,4-oxadiazol-2-yl)methyl}-1,3-dimethyl-2,3,6,7-tetrahydro-1H-purine-2,6-dione]

Same assay, conditions: Table 4; 6 nM NUDT5, 50 μM ADP-Ribose, 15 minutes at room temperature

Compound | IC50 [nM]
Cn1c(=O)c2c(nc(N3CCNCC3)n2Cc2nnc(-c3cccc(F)c3)o2)n(C)c1=O [Example 110, 7-{[5-(3-fluorophenyl)-1,3,4-oxadiazol-2-yl]methyl}-1,3-dimethyl-8-(piperazin-1-yl)-2,3,6,7-tetrahydro-1H-purine-2,6-dione] | 129
COc1cccc(-c2nnc(Cn3c(Cl)nc4c3c(=O)n(C)c(=O)n4C)o2)c1 [Example 92, 8-chloro-7-{[5-(3-methoxyphenyl)-1,3,4-oxadiazol-2-yl]methyl}-1,3-dimethyl-2,3,6,7-tetrahydro-1H-purine-2,6-dione] | 596
COc1ccc(-c2nnc(Cn3c(N4CCNCC4)nc4c3c(=O)n(C)c(=O)n4C)o2)cc1Cl [Example 118, 7-{[5-(3-chloro-4-methoxyphenyl)-1,3,4-oxadiazol-2-yl]methyl}-1,3-dimethyl-8-(piperazin-1-yl)-2,3,6,7-tetrahydro-1H-purine-2,6-dione] | 17.4
COc1cc(-c2nnc(Cn3c(NCC4CCN(C(=N)N)CC4)nc4c3c(=O)n(C)c(=O)n4C)o2)ccc1C [Example 128, 4-{[(7-{[5-(3-methoxy-4-methylphenyl)-1,3,4-oxadiazol-2-yl]methyl}-1,3-dimethyl-2,6-dioxo-2,3,6,7-tetrahydro-1H-purin-8-yl)amino]methyl}piperidine-1-carboximidamide] | 128
Cn1c(=O)c2c(nc(Cl)n2Cc2coc(-c3ccc(Cl)c(Cl)c3)n2)n(C)c1=O [Example 71, 8-chloro-7-{[2-(3,4-dichlorophenyl)-1,3-oxazol-4-yl]methyl}-1,3-dimethyl-2,3,6,7-tetrahydro-1H-purine-2,6-dione] | 81.6
COc1ccc(-c2nnc(Cn3c(Cl)nc4c3c(=O)n(C)c(=O)n4C)o2)cc1OC [Example 104, 8-chloro-7-{[5-(3,4-dimethoxyphenyl)-1,3,4-oxadiazol-2-yl]methyl}-1,3-dimethyl-2,3,6,7-tetrahydro-1H-purine-2,6-dione] | > 100000
COc1cc(-c2nnc(Cn3c(N4CCCNCC4)nc4c3c(=O)n(C)c(=O)n4C)o2)ccc1C [Example 131, 8-(1,4-diazepan-1-yl)-7-{[5-(3-methoxy-4-methylphenyl)-1,3,4-oxadiazol-2-yl]methyl}-1,3-dimethyl-2,3,6,7-tetrahydro-1H-purine-2,6-dione] | 60.7
Cn1c(=O)c2c(nc(N3CCNCC3)n2Cc2nc(-c3ccc(Cl)cc3)no2)n(C)c1=O [Example 70, 7-{[3-(4-chlorophenyl)-1,2,4-oxadiazol-5-yl]methyl}-1,3-dimethyl-8-(piperazin-1-yl)-2,3,6,7-tetrahydro-1H-purine-2,6-dione] | 57.4
Cn1c(=O)c2c(nc(Cl)n2Cc2nnc(-c3ccc(C(F)(F)F)cc3)o2)n(C)c1=O [Example 102, 8-chloro-1,3-dimethyl-7-({5-[4-(trifluoromethyl)phenyl]-1,3,4-oxadiazol-2-yl}methyl)-2,3,6,7-tetrahydro-1H-purine-2,6-dione] | 484
COc1cc(-c2nnc(Cn3c(N4CCC(CN)CC4)nc4c3c(=O)n(C)c(=O)n4C)o2)ccc1C [Example 127, 8-[4-(aminomethyl)piperidin-1-yl]-7-{[5-(3-methoxy-4-methylphenyl)-1,3,4-oxadiazol-2-yl]methyl}-1,3-dimethyl-2,3,6,7-tetrahydro-1H-purine-2,6-dione] | 32.9

Other lines, results leading:

IC50 [nM] | Compound
19.5 | Cn1c(=O)c2c(nc(NCC3CCN(C(=N)N)CC3)n2Cc2nnc(-c3ccc(Cl)c(Cl)c3)o2)n(C)c1=O [Example 85, 4-{[(7-{[5-(3,4-dichlorophenyl)-1,3,4-oxadiazol-2-yl]methyl}-1,3-dimethyl-2,6-dioxo-2,3,6,7-tetrahydro-1H-purin-8-yl)amino]methyl}piperidine-1-carboximidamide]
8.27 | Cn1c(=O)c2c(nc(N3CCC(C(N)=O)CC3)n2Cc2nnc(-c3ccc(Cl)c(Cl)c3)o2)n(C)c1=O [Example 136, 1-(7-{[5-(3,4-dichlorophenyl)-1,3,4-oxadiazol-2-yl]methyl}-1,3-dimethyl-2,6-dioxo-2,3,6,7-tetrahydro-1H-purin-8-yl)piperidine-4-carboxamide]
16.5 | Cn1c(=O)c2c(nc(N)n2Cc2nnc(-c3ccc(Cl)c(Cl)c3)o2)n(C)c1=O [Example 87, 8-amino-7-{[5-(3,4-dichlorophenyl)-1,3,4-oxadiazol-2-yl]methyl}-1,3-dimethyl-2,3,6,7-tetrahydro-1H-purine-2,6-dione]
454 | Cn1c(=O)c2c(nc(NCCS(=O)(=O)O)n2Cc2nnc(-c3ccc(Cl)c(Cl)c3)o2)n(C)c1=O [Example 82, 2-[(7-{[5-(3,4-dichlorophenyl)-1,3,4-oxadiazol-2-yl]methyl}-1,3-dimethyl-2,6-dioxo-2,3,6,7-tetrahydro-1H-purin-8-yl)amino]ethane-1-sulfonic acid]
58.2 | Cn1c(=O)c2c(nc(-n3ccnc3)n2Cc2nnc(-c3ccc(Cl)c(Cl)c3)o2)n(C)c1=O [Example 66, 7-{[5-(3,4-dichlorophenyl)-1,3,4-oxadiazol-2-yl]methyl}-8-(1H-imidazol-1-yl)-1,3-dimethyl-2,3,6,7-tetrahydro-1H-purine-2,6-dione]
214 | CCOC(=O)c1cnn(-c2nc3c(c(=O)n(C)c(=O)n3C)n2Cc2nnc(-c3ccc(Cl)c(Cl)c3)o2)c1 [Example 68, ethyl 1-(7-{[5-(3,4-dichlorophenyl)-1,3,4-oxadiazol-2-yl]methyl}-1,3-dimethyl-2,6-dioxo-2,3,6,7-tetrahydro-1H-purin-8-yl)-1H-pyrazole-4-carboxylate]
200 | Cn1c(=O)c2c(nc(-n3cccn3)n2Cc2nnc(-c3ccc(Cl)c(Cl)c3)o2)n(C)c1=O [Example 67, 7-{[5-(3,4-dichlorophenyl)-1,3,4-oxadiazol-2-yl]methyl}-1,3-dimethyl-8-(1H-pyrazol-1-yl)-2,3,6,7-tetrahydro-1H-purine-2,6-dione]
